From patent publication US11168102B1, “Bicyclic heteroaryl compounds and uses thereof” (Revolution Medicines, Inc., priority 2019, dated 2021)

Tested on: cellular pERK in PC-9 cells (EGFR Ex19Del)
Experiment: Potency assay: pERK (AlphaLISA SureFire Ultra p-ERK1/2) in PC-9 cells
Type: cell-based
Conditions: Homo sapiens, PC-9, 1 h, PC-9 cells (EGFR Ex19Del), 1 hour incubation, AlphaLISA SureFire Ultra p-ERK1/2; read-out: SOS1 pERK IC50

IC50	Compound
72.4 nM	Cc1nc(N[C@H](C)c2cc(N)cc(C(F)(F)F)c2)c2cc(C3=CCOCC3)c(=O)n(C)c2n1 [Example 7, (R)-4-((1-(3-amino-5-(trifluoromethyl)phenyl)ethyl)amino)-6-(3,6-dihydro-2H-pyran-4-yl)-2,8-dimethylpyrido[2,3-d]pyrimidin-7(8H)-one]
2130 nM	Cc1nc(N[C@H](C)c2cc(N)cc(C(F)(F)F)c2)c2cc(C3CCNCC3)c(=O)[nH]c2n1 [Example 8, (R)-4-((1-(3-amino-5-(trifluoromethyl)phenyl)ethyl)amino)-2-methyl-6-(piperidin-4-yl)pyrido[2,3-d]pyrimidin-7(8H)-one]
486 nM	C[C@@H](Nc1ncnc2c1cc(-c1ccccc1)c(=O)n2C)c1cccc(C(F)F)c1F [Example 21-13]
119 nM	C[C@@H](Nc1ncnc2c1cc(-c1ccncc1)c(=O)n2C)c1cccc(C(F)F)c1F [Example 21-14]
212 nM	C[C@@H](Nc1ncnc2c1cc(-c1cccnc1)c(=O)n2C)c1cccc(C(F)F)c1F [Example 21-15]
122 nM	C[C@@H](Nc1ncnc2c1cc(C1=CC[S+]([O-])CC1)c(=O)n2C)c1cccc(C(F)F)c1F (stereo partly drawn) [Example 22, 4-(((R)-1-(3-(difluoromethyl)-2-fluorophenyl)ethyl)amino)-8-methyl-6-(1-oxido-3,6-dihydro-2H-thiopyran-4-yl)pyrido[2,3-d]pyrimidin-7(8H)-one]
48.5 nM	C[C@@H](Nc1ncnc2c1cc(C1=CCS(=N)(=O)CC1)c(=O)n2C)c1cccc(C(F)F)c1F (stereo partly drawn) [Example 23, 4-(((R)-1-(3-(difluoromethyl)-2-fluorophenyl)ethyl)amino)-6-(1-imino-1-oxido-1,2,3,6-tetrahydro-1λ^6-thiopyran-4-yl)-8-methylpyrido[2,3-d]pyrimidin-7(8H)-one]
61.4 nM	CN=S1(=O)CC=C(c2cc3c(N[C@H](C)c4cccc(C(F)F)c4F)ncnc3n(C)c2=O)CC1 (stereo partly drawn) [Example 24, 4-(((R)-1-(3-(difluoromethyl)-2-fluorophenyl)ethyl)amino)-8-methyl-6-(1-(methylimino)-1-oxido-1,2,3,6-tetrahydro-1λ^6-thiopyran-4-yl)pyrido[2,3-d]pyrimidin-7(8H)-one]
122 nM	C[C@@H](Nc1ncnc2c1cc(C1CC[S+]([O-])CC1)c(=O)n2C)c1cccc(C(F)F)c1F (stereo partly drawn) [Example 25, (R)-4-((1-(3-(difluoromethyl)-2-fluorophenyl)ethyl)amino)-8-methyl-6-(1-oxidotetrahydro-2H-thiopyran-4-yl)pyrido[2,3-d]pyrimidin-7(8H)-one]
388 nM	Cc1nc(N[C@H](C)c2cccc(C(F)F)c2F)c2cc(C(=O)N3CCOCC3)c(=O)n(C)c2n1 [Example 26, 4-{[(1R)-1-[3-(difluoromethyl)-2-fluorophenyl]ethyl]amino}-2,8-dimethyl-6-(morpholine-4-carbonyl)-7H,8H-pyrido[2,3-d]pyrimidin-7-one]
423 nM	C[C@@H](Nc1ncnc2c1cc(C(=O)N1CC3(COC3)C1)c(=O)n2C)c1cccc(C(F)F)c1F [Example 26-4]
396 nM	C[C@@H](Nc1ncnc2c1cc(C(=O)N1CC3COCC31)c(=O)n2C)c1cccc(C(F)F)c1F (stereo partly drawn) [Example 26-5]
252 nM	CCC1(O)CN(C(=O)c2cc3c(N[C@H](C)c4cccc(C(F)F)c4F)ncnc3n(C)c2=O)C1 [Example 26-8]
2090 nM	C[C@@H](Nc1ncnc2c1cc(C(=O)N(C)c1cccnc1)c(=O)n2C)c1cccc(C(F)F)c1F [Example 26-10]
1130 nM	C[C@@H](Nc1ncnc2c1cc(C(=O)N1CC3(CCCO3)C1)c(=O)n2C)c1cccc(C(F)F)c1F [Example 26-13]
122 nM	C[C@@H](Nc1ncnc2c1cc(C(=O)N1CCCC13COC3)c(=O)n2C)c1cccc(C(F)F)c1F [Example 26-14]
256 nM	C[C@@H](Nc1ncnc2c1cc(C(=O)N1CC3(CCOC3)C1)c(=O)n2C)c1cccc(C(F)F)c1F [Example 26-15]
729 nM	C[C@@H](Nc1ncnc2c1cc(C(=O)N1CC[C@@H]3CO[C@@H]3C1)c(=O)n2C)c1cccc(C(F)F)c1F [Example 26-16]
195 nM	C[C@@H](Nc1ncnc2c1cc(C(=O)N1CC[C@@H]3CCO[C@@H]31)c(=O)n2C)c1cccc(C(F)F)c1F [Example 26-17]

IC50	Compound
589 nM	C[C@@H](Nc1ncnc2c1cc(C(=O)N1CC3CCC1CO3)c(=O)n2C)c1cccc(C(F)F)c1F (stereo partly drawn) [Example 26-18]
295 nM	C[C@@H](Nc1ncnc2c1cc(C(=O)N1CC3CCC(C1)O3)c(=O)n2C)c1cccc(C(F)F)c1F [Example 26-19]
275 nM	CC1CN(C(=O)c2cc3c(N[C@H](C)c4cccc(C(F)F)c4F)ncnc3n(C)c2=O)C(C)CO1 (stereo partly drawn) [Example 26-23]
803 nM	C[C@@H](Nc1ncnc2c1cc(C(=O)N1CCc3cnccc31)c(=O)n2C)c1cccc(C(F)F)c1F [Example 26-27]
766 nM	C[C@@H](Nc1ncnc2c1cc(C(=O)N1Cc3cccnc3C1)c(=O)n2C)c1cccc(C(F)F)c1F [Example 26-28]
152 nM	C[C@@H](Nc1ncnc2c1cc(C(=O)N1CC3(CCOCC3)C1)c(=O)n2C)c1cccc(C(F)F)c1F [Example 26-33]
122 nM	C[C@@H](Nc1ncnc2c1cc(C(=O)N1CCCC13CCOC3)c(=O)n2C)c1cccc(C(F)F)c1F (stereo partly drawn) [Example 26-34]
193 nM	C[C@@H](Nc1ncnc2c1cc(C(=O)N1CCOCC13COC3)c(=O)n2C)c1cccc(C(F)F)c1F [Example 26-35]
747 nM	COCC1COCCN1C(=O)c1cc2c(N[C@H](C)c3cccc(C(F)F)c3F)ncnc2n(C)c1=O (stereo partly drawn) [Example 26-37]
> 10000 nM	C[C@@H](Nc1ncnc2c1cc(C(=O)N1CCC[C@@H]1c1nnn[nH]1)c(=O)n2C)c1cccc(C(F)F)c1F [Example 26-39]
453 nM	CC(=O)N1CC2(C1)CN(C(=O)c1cc3c(N[C@H](C)c4cccc(C(F)F)c4F)ncnc3n(C)c1=O)C2 [Example 26-40]
194 nM	C[C@@H](Nc1ncnc2c1cc(C(=O)N1CCCC13CCOCC3)c(=O)n2C)c1cccc(C(F)F)c1F [Example 26-42]
401 nM	C[C@@H](Nc1ncnc2c1cc(C(=O)N1CCN3CCOCC3C1)c(=O)n2C)c1cccc(C(F)F)c1F (stereo partly drawn) [Example 26-44]
521 nM	C[C@@H](Nc1ncnc2c1cc(C(=O)N1CC(N3CC(C)(O)C3)C1)c(=O)n2C)c1cccc(C(F)F)c1F [Example 26-45]
322 nM	C[C@@H](Nc1ncnc2c1cc(C(=O)N1CCOC3(CCOC3)C1)c(=O)n2C)c1cccc(C(F)F)c1F (stereo partly drawn) [Example 26-46]
585 nM	C[C@@H](Nc1ncnc2c1cc(C(=O)N1CCOCC13CCOC3)c(=O)n2C)c1cccc(C(F)F)c1F (stereo partly drawn) [Example 26-47]
220 nM	COCCN1CCN(C(=O)c2cc3c(N[C@H](C)c4cccc(C(F)F)c4F)ncnc3n(C)c2=O)CC1 [Example 26-48]
880 nM	C[C@@H](Nc1ncnc2c1cc(C(=O)N1CCC(O)(C(F)(F)F)CC1)c(=O)n2C)c1cccc(C(F)F)c1F [Example 26-50]

Compound	IC50
Cc1nc(N[C@H](C)c2cc(N)cc(C(F)(F)F)c2)c2cc(C3=CCNCC3)c(=O)n(C)c2n1 [Example 6, 4-[[(1R)-1-[3-amino-5-(trifluoromethyl)phenyl]ethyl]amino]-2,8-dimethyl-6-(1,2,3,6-tetrahydropyridin-4-yl)pyrido[2,3-d]pyrimidin-7-one]	188 nM
C[C@@H](Nc1ncnc2c1cc(C(=O)N1C3CCC1CN(C)C3)c(=O)n2C)c1cccc(C(F)F)c1F [Example 26-32]	216 nM
